Entries after “also recorded” stand apart in the source; their conditions may differ.
B1: MetMAb: Anti-c-met monovalent monoclonal antibody MetMAb (rhuOA5D5v2) (WO2007/063816) (antibody, chains of the INN, looked up, V domains shown)
VH: EVQLVESGGGLVQPGGSLRLSCAASGYTFTSYWLHWVRQAPGKGLEWVGMIDPSNSDTRFNPNFKDRFTISADTSKNTAYLQMNSLRAEDTAVYYCATYRSYVTPLDYWGQGTLVTVSS
VL: DIQMTQSPSSLSASVGDRVTITCKSSQSLLYTSSQKNYLAWYQQKPGKAPKLLIYWASTRESGVPSRFSGSGSGTDFTLTISSLQPEDFATYYCQQYYAYPWTFGQGTKVEIK
modifications: one-armed

Tests used:
NCI-H596 cells = assay: NCI-H596 cell viability assay (Celltiter-Glo) with TGFα +/- HGF; format: cell-based, human
Description: Cells: NCI-H596 cells were obtained from the American Type Culture Collection (ATCC) and were maintained in RPMI 1640 supplemented with 10% fetal bovine serum (FBS; Sigma, St. Louis, Mo.), and 2 mM L-glutamine. Cell assay media was changed as described below depending upon the experiment.
Therapeutics and Growth factors: Erlotinib and MetMAb were from Genentech, Inc., as described above. HGF and TGFα were generated at Genentech.
Cell Viability Assays: For cell viability assays, cells were plated in quadruplicate at 1×10^3 cells per well in 384-well plates in RPMI containing 0.5% FBS (assay medium) overnight, prior to stimulation with assay medium containing 3 nM TGF-a+/−HGF. Erlotinib was added at multiple concentrations and 72 hours later, cell viability was measured using the Celltiter-Glo Luminescent Cell Viability Assay (Promega, Madison, Wis.).
To determine whether activation of the c-met pathway could change the response of NCI-N596 cells to erlotinib, cells were stimulated with TGFα, treated with erlotinib and/or HGF, then cell viability was assayed.

NCI-H596 tumors = assay: Combination efficacy of MetMAb with erlotinib in the NCI-H596 hu-HGF-Tg-C3H-SCID xenograft model; format: in vivo; conditions: NCI-H596 tumors in hu-HGF-Tg-C3H-SCID mice, MetMAb 30 mg/kg IP once, erlotinib 150 mg/kg PO QD x2 weeks; for reduction in tumor growth compared to the vehicle control: day 20
Description: Test Material. Anti-c-met monovalent monoclonal antibody MetMAb (rhuOA5D5v2) was provided by the Antibody Engineering Department at Genentech, Inc., in a clear liquid form at 10.6 mg/ml. The vehicle was 10 mM histidine succinate, 4% trehalose dihydrate, 0.02% polysorbate 20, pH 5.7. Erlotinib (TARCEVA™) was provided by OSI Pharmaceuticals to the Pharmaceutics Department at Genentech and was weighed out along with a sufficient amount of vehicle (methylcellulose tween (MCT)). All material was shipped from Genentech, Inc. to the Van Andel Research Institute (VARI; Grand Rapids, Mich.) and was formulated prior to animal treatments. Materials were stored in a refrigerator set to maintain a temperature range of 4° C. to 8° C. The NCI-H596 cell line was obtained from American Type Culture collection (Manassas, Va.).
Species. Forty human HGF transgenic C3H-SCID mice (hu-HGF-Tg-C3H-SCID) were obtained from the in-house colony at the Van Andel Research Institute (VARI; Grand Rapids, Mich.). Five C3H-SCID mice were obtained from Jackson Laboratories. Animals were 4-6 weeks old and weighed 21-22 grams each. Mice were acclimated to study conditions for at least three days prior to tumor cell inoculations. Mice were housed in a shower-in barrier facility. Animals were housed in ventilated caging systems in rooms with filters supplying High-Efficiency Particulate Air (HEPA). Only animals that appeared to be healthy and were free of obvious abnormalities were used for the study.
Study design. As most HGF responsive tumors are driven in a paracrine fashion, a xenograft model that models paracrine driven growth was selected. Mouse HGF is a poor ligand for human c-met leading to a low biological response of human c-met expressing cells lines to mouse HGF (Bhargava, M., et al., 1992; Rong, S., et al., 1992). […]
The NCI-H596 cell line bears a mutated form of the c-met gene lacking exon 14 that encodes a binding site for the E3 ubiquitin ligase Cbl (Kong-Beltran, M., 2006). […] The responsiveness of NCI-H596 can also be seen in vivo, as the cell line readily form tumors in HGF-Tg-SCID mice (expressing human HGF, as noted above), but will not form tumors in immunocompromised mice lacking human HGF (nu/nu nude mice or SCID mice). […]
NCI-H596 cells were cultured in growth media that consisted of RPMI 1640 media (Invitrogen), 2 mM L-glutamine, and 10% fetal bovine serum. […] A subset of cells was counted by trypan blue exclusion and the remainder of the cells was resuspended in 100 μl of sterile 1× PBS to a concentration of 5×10^6 cells per milliliter.
Mice were prepared for inoculation by shaving the dorsal area with clippers. […] Tumors were monitored until they reached a mean volume of 100 mm^3. […]

Row | Molecule | sensitivity (response) of cells to erlotinib in the presence of HGF (NCI-H596 cells; TGFα plus HGF 0.5 to 50 ng/ml, 72 hours) | cell viability when grown in the presence of erlotinib and TGFα (NCI-H596 cells; TGFα, no HGF) | reduction in tumor growth compared to the vehicle control (NCI-H596 tumors) | mean time to tumor doubling (TTD) (NCI-H596 tumors) | effect of MetMAb on erlotinib sensitivity (cell viability) (NCI-H596 cells; TGFα and HGF (50 ng/ml), MetMAb 1 μM, varying erlotinib)
1 | C#Cc1cccc(Nc2ncnc3cc(OCCOC)c(OCCOC)cc23)c1 [erlotinib, N-(3-ethynylphenyl)-6,7-bis(2-methoxyethoxy)-4-quinazolinamine] | Reduction in relative response; also recorded: dramatically reduced in a dose-dependent manner; also recorded: attenuated response | reduced cell viability | statistically insignificant reduction | 9.5 (±1.2) days | –
2 | B1 | – | – | 67% | 17.8 (±2.2) days | dramatically restored erlotinib sensitivity

Source: US20160303127A1, “COMBINATION THERAPY WITH C-MET AND EGFR ANTAGONISTS” (Genentech, Inc., priority 2008, published 2016)
